# Measurements reported in patent publication US20090317371A1, “Method, Composition, and Device, for the Treatment of Amylase Malfunctions / Inactivity in Association with Saccharides (Mainly Polysaccharides) Based Diseases” (priority 2008, published 2009).
# Assay: In-vitro testing of glucose units in a glucose solution before and after mixing with the agent
# Assay type: biochemical
# Details: 10 mls of 10% glucose solution (more than 600 mg/dl before)
# Experimental: Our methods were: In-vitro testing to determine glucose units in a glucose solution before and after mixing with Amzylite against other known hypoglaycaemic agents (metformin, sulfonylurea, etc) including insulin. 10 mls of 10% concentrated glucose solution tested for glucose concentration using glucose oxidase and or hexokinase (glucometers can also be used). […] One or two capsule of Amzylite was added to the glucose solution. In-vivo: 141 type I and type II diabetics with diabetes neuropathy, in addition to 9 diabetics with renal incompetency, 15 diabetics with chronic wounds to extremities, 2 diabetics had progressive gas gangrene, all patients had neuropathy with impaired sensations to distal extremities and one none diabetic with renal failure were identified. 31 out of 141 were excluded for incomplete records. 8 self discharged. 128 classified into 4 groups: 33 on insulin therapy; 20 on insulin and oral hypoglycaemic agents, 58 on only oral hypoglycaemic therapy, 16 on diet control only. 9 with high creatinine levels, 15 with chronic wounds, 2 had gas gangrene to distal extremities and one non diabetic had renal incompetency and was on dialysis. Laboratory tests were determined before and after starting Amzylite. No placebo was given.
# In-vitro testing to determine glucose units in a glucose solution before and after mixing with Amzylite against other known hypoglaycaemic agents (metformin, sulfonylurea, etc) including insulin. 10 mls of 10% concentrated glucose solution tested for glucose concentration using glucose oxidase and or hexokinase (glucometers can also be used). […] One capsule of Amzylite added to the glucose solution. For In-vivo study to determine the effectiveness of Amzylite as treatment for D.M. 141 patients with type I and type II D.M were treated with Amzylite. 31 patients were excluded for incomplete records. 8 patients' self withdrawn. […] Fasting and 2 hours postprandial blood glucose levels (HbA1c checked in some but not all patients) were determined before starting Amzylite. […] Saliva enzymes function tests were determined for disaccharides and polysaccharides in all patients. […] Improvement in patients' symptoms, daily glucose readings (fasting/2 hour postprandial) and HbA1c were set up as target and evaluation criteria. […] Changes were also determined by […]. 1—Improvement with complete recovery, 2—Significant improvement of symptoms and readings (range 70-170 mg/dl and below 200 mg/dl), 3—Improved symptoms but no change on readings, 4—Improved readings but no improvement on symptoms, 5—No change on symptoms or readings, 6—Higher or lower glucose readings. […]
# [1] = one capsule of Amzylite, second study
# [2] = one or two capsules of Amzylite, first study
Compound,In vitro glucose readings after mixing [1],In vitro glucose readings after mixing [2]
CN(C)C(=N)N=C(N)N [metformin],No changes,No changes
insulin,No changes,No changes
